From PMC2581804, “Mycobacterium tuberculosis Glucosyl-3-Phosphoglycerate Synthase: Structure of a Key Enzyme in Methylglucose Lipopolysaccharide Biosynthesis” (PLoS ONE, 2008)

Target: M. tuberculosis GpgS (glucosyl-3-phosphoglycerate synthase) (Mycobacterium tuberculosis, UniProt P9WMW9)
Sequence (P9WMW9 whole entry): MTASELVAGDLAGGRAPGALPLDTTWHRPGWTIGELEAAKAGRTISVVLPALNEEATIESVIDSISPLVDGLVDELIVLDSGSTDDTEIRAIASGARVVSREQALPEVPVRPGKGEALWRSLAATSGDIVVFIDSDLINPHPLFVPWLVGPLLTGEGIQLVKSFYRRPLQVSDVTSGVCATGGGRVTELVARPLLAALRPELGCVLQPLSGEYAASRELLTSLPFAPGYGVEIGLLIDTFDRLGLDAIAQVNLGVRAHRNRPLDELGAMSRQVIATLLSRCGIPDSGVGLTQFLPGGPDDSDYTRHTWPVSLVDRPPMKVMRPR

O=C(O)[C@H](O)COP(=O)(O)O [3-phosphoglycerate]
X-ray crystal structure of ternary complex, 2.7 A (co-crystallization): there is clear electron density for the carboxylate region of the bound 3-phosphoglycerate
